Here are results for 13 molecules from patent publication US6916923B2 (Hoffmann-La Roche Inc., priority 1999, dated 2005).

Assay [1] relates to colon carcinoma line HCT-116. The assay is described as follows: HCT-116 cell-based antiproliferative (MTT) assay. Conditions: Homo sapiens, HCT-116, 96 h, 1000 cells per well, 4 days post addition of test compound, read-out: Antiproliferative Activity HCT 116 (colon) Assay - IC50 Range. On the procedure:
(§1) The estrogen receptor negative epithelial breast carcinoma line (MDA-MB-435) was purchased from American Type Cell Culture Collection (ATCC; Rockville, Md.) and was grown in the medium recommended by ATCC. For analysis of the effect of the test compounds on growth of these cells, the cells were plated at 2000 cells per well in a 96-well tissue culture plate, and were incubated overnight at 37° C. with 5% CO2. The next day, the test compounds were dissolved in 100% dimethyl sulfoxide (DMSO) to yield a 10 mM stock solution. Each compound was diluted with sterile medium to 1 mM in a sufficient quantity to yield a final concentration of 120 μM. The compounds were then serially diluted in medium with 1.2% DMSO. One-fourth final volume of the diluted compounds was transferred to 96 well plates. Test compounds were assayed in duplicate. DMSO was added to a row of “control cells” such that the final concentration of DMSO in each well was 0.3%. Wells to which no cells were added served as the “blank.” Wells to which no inhibitor was added served as “no inhibitor control”. The plates were returned to the incubator, and 5 days post addition of test compound, were analyzed as described below.
(§2) 3-(4,5-Dimethylthiazole-2-yl)-2,5-diphenyl-2H-tetrazolium bromide (thiazolyl blue; MTT) was added to each well to yield a final concentration of 1 mg/mL. The plates were then incubated at 37° C. for 3 hours. The plates were centrifuged at 1000 rpm for 5 minutes prior to aspiration of the MTT-containing medium. The MTT-containing medium was then removed and 100 μL 100% ethanol was added to each well to dissolve the resulting formazan metabolite. To ensure complete dissolution, plates were shaken for 15 minutes at room temperature. Absorbencies were read in a microtiter plate reader (Molecular Dynamics) at a wavelength of 570 nm with a 650 nm reference. Percent inhibition was calculated by subtracting the absorbance of the blank (no cell) wells from all wells, then subtracting the division of the average absorbance of each test duplicate by the average of the controls from 1.00. Inhibitory concentrations (IC50) were determined from the linear regression of a plot of the logarithm of the concentration versus the percent inhibition.
(§3) The colon adenocarcinoma line SW480 and the colon carcinoma line HCT-116 also were obtained from the ATCC and were tested according to the same protocol provided above for MDA-MB435 cell based assay with the following modifications. Cell line SW480 was plated at 1000 cells per well and analyzed at 6 days post addition of the test compound. Cell line HCT-116 was plated at 1000 cells per well and analyzed at 4 days post addition of test compound.

The target in assay [2] is T1, Recombinant active human Cyclin E/CDK2 complexes (Homo sapiens, UniProt P24941).
T1 construct: made in house; host or cells: insect cells
The assay is described as follows: CDK2 FlashPlate Assay (inhibition of Rb phosphorylation). The class given is biochemical. Conditions: Cyclin E/CDK2, Rb substrate, 33P-ATP, 25 minutes at room temperature; read-out: Inhibition of Cdk2 - IC50 Range. The procedure:
To determine inhibition of CDK2 activity, purified recombinant retinoblastoma (Rb) protein was coated on 96 well FlashPlates (New England Nuclear, Boston, Mass.). Rb is a natural substrate for phosphorylation by CDK2 (Herwig and Strauss Eurr. J. Biochem., Vol. 246 (1997) pp. 581-601 and references therein). Recombinant active human Cyclin E/CDK2 complexes were partially purified from extracts of insect cells. The active Cyclin E/CDK2 was added to the Rb-coated FlashPlates along with ^33P-ATP and dilutions of test compounds. Plates were incubated for 25 minutes at room temperature with shaking, then washed and counted in the Topcount scintillation counter (Packard Instrument Co., Downers Grove, Ill.). Dilutions of test compounds were tested in duplicate in each assay. The percent inhibition of Rb phosphorylation, which is a measure of the inhibition of CDK2 activity, was determined according to the following formula: [formula] where “test compound” refers to the average counts per minute of the test duplicates, “nonspecific” refers to the average counts per minute when no Cyclin E/CDK2 was added, and “total” refers to the average counts per minute when no compound was added.

For assay [3], the system named is colon adenocarcinoma line SW480. Briefly: SW480 cell-based antiproliferative (MTT) assay. The conditions noted are these: Homo sapiens, SW480, 144 h, 1000 cells per well, 6 days post addition of test compound, read-out: Antiproliferative Activity SW480 (colon) Assay - IC50 Range. On the procedure: as §1, §2, §3
Assay [4] has as its system estrogen receptor negative epithelial breast carcinoma line (MDA-MB-435). Briefly: MDA-MB-435 cell-based antiproliferative (MTT) assay. Conditions: Homo sapiens, MDA-MB-435, 120 h, 2000 cells per well, 5 days post addition of test compound, read-out: Antiproliferative Activity of MDA-MB435 (breast) Assay - IC50 Range. The procedure:
as §1, §2

Turning to `O=[N+]([O-])c1ccc2c(c1)C(c1ccccc1Cl)=Nc1c[nH]nc1N2` [Compound A5, 5-(2-chlorophenyl)-7-nitro-pyrazolo[3,4][1,4]benzodiazepine], the 50% inhibitory concentration (IC50) in assay [1] lay in the range of 10 to 30 µM; in assay [2], 0.01 to 0.99 µM; in assay [3], 1.1 to 9.99 µM; in assay [4], 10 to 30 µM.

On to `Fc1ccccc1C1=Nc2c[nH]nc2Nc2ccccc21` [Compound A10, 5-(2-fluorophenyl)-pyrazolo[3,4][1,4]benzodiazepine], for which the IC50 in assay [1] lay in the range of 10 to 30 µM; in assay [2], 1 to 9.99 µM; in assay [3], 10 to 30 µM.

As to `O=[N+]([O-])c1ccc2c(c1)C(c1ccccc1F)=Nc1c[nH]nc1N2` [Compound A13, 5-(2-fluorophenyl)-7-nitro-pyrazolo[3,4][1,4]benzodiazepine], the IC50 in assay [1] fell in the range of 10 to 30 µM; in assay [2] it was 0.01 to 0.99 µM; in assay [3] it was 1.1 to 9.99 µM; in assay [4] it was 10 to 30 µM.

Turning to `Clc1ccccc1C1=Nc2c[nH]nc2Nc2ccccc21` [Compound A21, 5-(2-chlorophenyl)-pyrazolo[3,4][1,4]benzodiazepine], the 50% inhibitory concentration (IC50) was 10 to 30 µM in assay [1], 0.01 to 0.99 µM in assay [2] and 10 to 30 µM in assay [3].

On to `O=[N+]([O-])c1ccc2c(c1)C(c1ccccc1Cl)=Nc1c(n[nH]c1-c1ccc[nH]1)N2` [Compound B1, 3-(2-pyrrolyl)-5-(2-chlorophenyl)-7-nitro-pyrazolo[3,4][1,4]benzodiazepine], for which the 50% inhibitory concentration (IC50) in assay [1] lay in the range of 1.1 to 9.99 µM; in assay [2] it was 0.01 to 0.99 µM; in assay [3] it was 1.1 to 9.99 µM.

With `Cc1[nH]nc2c1N=C(c1ccccc1Cl)c1cc([N+](=O)[O-])ccc1N2` [Compound B3, 3-methyl-5-(2-chlorophenyl)-7-nitro-pyrazolo[3,4][1,4]benzodiazepine], the 50% inhibitory concentration (IC50) lay within 0.01 to 1 µM in assay [1], 0.01 to 0.99 µM in assay [2], 0.01 to 1 µM in assay [3] and 0.01 to 1 µM in assay [4].

With `CCc1[nH]nc2c1N=C(c1ccccc1Cl)c1cc([N+](=O)[O-])ccc1N2` [Compound B4, 3-ethyl-5-(2-chlorophenyl)-7-nitro-pyrazolo[3,4][1,4]benzodiazepine], the IC50 in assay [1] lay in the range of 0.01 to 1 µM; in assay [2], 0.01 to 0.99 µM; in assay [3], 0.01 to 1 µM; in assay [4], 0.01 to 1 µM.

Regarding `O=[N+]([O-])c1ccc2c(c1)C(c1ccccc1Cl)=Nc1c(n[nH]c1-c1ccccc1)N2` [Compound B23, 3-phenyl-5-(2-chlorophenyl)-7-nitro-pyrazolo[3,4][1,4]benzodiazepine], the results for the IC50 in assay [1], in assay [2] and in assay [3] were 10 to 30 µM, 0.01 to 0.99 µM and 10 to 30 µM, respectively.

In the case of `NNC(=O)c1[nH]nc2c1N=C(c1ccccc1Cl)c1cc([N+](=O)[O-])ccc1N2` [Compound C12, N-amino-5-(2-chlorophenyl)-7-nitro-pyrazolo[3,4][1,4]benzodiazepine-3-carboxamide], the half-maximal inhibitory concentration (IC50) fell in the range of 1.1 to 9.99 µM in assay [1], 0.01 to 0.99 µM in assay [2] and 10 to 30 µM in assay [3].

Regarding `O=[N+]([O-])c1ccc2c(c1)C(c1ccccc1Cl)=Nc1c(n[nH]c1-c1cccs1)N2` [Compound D6], the values for the IC50 in assay [1], in assay [2] and in assay [3] were 10 to 30 µM, 0.01 to 0.99 µM and 10 to 30 µM, respectively.

Consider `O=[N+]([O-])c1ccc2c(c1)C(c1ccccc1Cl)=Nc1c(n[nH]c1-c1ccco1)N2` [Compound D7], for which the IC50 was in the range of 10 to 30 µM in assay [1], 0.01 to 0.99 µM in assay [2] and 10 to 30 µM in assay [3].

Take `Cc1ccccc1-c1[nH]nc2c1N=C(c1ccccc1Cl)c1cc([N+](=O)[O-])ccc1N2` [Compound D37]: the results for the 50% inhibitory concentration (IC50) in assay [1], in assay [2] and in assay [3] were 10 to 30 µM, 1 to 9.99 µM and 10 to 30 µM, respectively.

With `NC(=O)c1ccc2c(c1)C(c1ccccc1F)=Nc1c[nH]nc1N2` [Compound D50], the half-inhibitory concentration (IC50) in assay [1] fell in the range of 1.1 to 9.99 µM; in assay [2], 0.01 to 0.99 µM; in assay [3], 1.1 to 9.99 µM.
